US10517846B2, “Pharmaceutical compositions for treating acne” (Dr. Reddy's Laboratories Ltd., priority 2016, dated 2019)
Converted amounts (≈) assume the structure as drawn.

Columns and labels:
[1] = Solubility studies for isotretinoin using non-aqueous solvents; type: physicochemical; conditions: organic solvent or mixture
Protocol: Solubility studies for isotretinoin were carried out using non-aqueous solvents as mentioned in table 1.

[2] = oral; patients with severe acne; cited from earlier work
[3] = cited from earlier work

- solubility ([1]; solvent Acetone): 30 mg/mL (≈ 99.9 mM)
- solubility ([1]; solvent Dichloromethane): 12 mg/mL (≈ 39.9 mM)
- solubility ([1]; solvent Ethanol): 10 mg/mL (≈ 33.3 mM)
- solubility ([1]; solvent Isopropyl alcohol): 12 mg/mL (≈ 39.9 mM)
- solubility ([1]; solvent Methanol): 10 mg/mL (≈ 33.3 mM)
SMILES: CC1=C(/C=C/C(C)=C/C=C/C(C)=C\C(=O)O)C(C)(C)CCC1 [isotretinoin, (2Z,4E,6E,8E)-3,7-dimethyl-9-(2,6,6-trimethylcyclohex-1-en-1-yl)nona-2,4,6,8-tetraenoic acid]
- long-term remission, share of patients [2]: about 80%
- water solubility [3]: very low water solubility
